Source: patent publication US20080166310A1, “Administration of 2-oxyacetamide compounds for promoting and/or inducing and/or stimulating the pigmentation of keratin materials and/or for limiting the depigmentation and/or bleaching thereof” (L'OREAL, priority 2005, published 2008)

System: tyrosinase activity of normal human melanocytes
Assay: Effect on the tyrosinase activity of normal human melanocytes in culture (L-Dopa substrate, absorbance 450 nm)
Format: cell-based
Settings: 72 hours, normal human epidermal melanocytes
Method: Melanocyte Culture Conditions:
Normal human epidermal melanocytes are cultured (9th passage) in “melanocytes growth medium M2” supplemented with Promocell C24300 supplements 50 IU/ml of penicillin and 50 μg/ml of streptomycin (Invitrogen) under standard temperature conditions (37° C.) and 5% CO2.
Preparation of the Solutions of the Test Compound:
The compound is dissolved in absolute ethanol (PGE2) or in DMSO (15-PGDH inhibitors). The final titer of the prepared solutions is 10 mM. The final test concentrations range from 0.1 to 10 μM (PGE2) and 1 to 10 μM (15-PGDH inhibitors).
The tests performed consist in measuring the inhibitory effect on 15-PGDH alone or combined with PGE2* on the overall activity of tyrosinase.
PGE2 is a pigmentation modulator that is deactivated by the enzyme 15-PGDH.
The melanocytes are cultured in 96-well plates, to the point of confluence (culture conditions described in a), and the supernatant of each of the wells is then removed and replaced with medium containing the compounds to be evaluated, i.e., (in triplicate) the 15-PGDH inhibitor alone at 1 μM and 10 μM or for each of these first conditions in the presence of 0.1 μM, 1 μM or 10 μM of PGE2.
The cultures are maintained under these various conditions for 72 hours, the supernatants are then removed and the cell carpets are washed with a phosphate buffer (pH=7.2). The cells are lysed with a pH 7.2 phosphate buffer containing 1% Triton X100.
The tyrosinase activity of each of the lysates is then estimated against a fungal tyrosinase range (Sigma T7755).
The methodology employed uses L-Dopa as reaction substrate (45 minutes at 37° C.), and the formation of melanin is assessed by measuring the absorbance at 450 nm.
In this test, two references are also evaluated: kojic acid (a tyrosinase inhibitor introduced at 0.1% into the culture medium) and isobutylmethylxanthine (IBMX), a phosphodiesterase inhibitor which, by limiting the catabolism of cAMP, contributes towards increasing the overall tyrosinase activity as assessed in this test.

Compound | stimulation of the tyrosinase activity (Compound 23 (1 μM) + PGE2 (1 μM)) [%] | stimulation of the tyrosinase activity (Compound 23 (1 μM) + PGE2 (10 μM)) [%] | stimulation of the activity of tyrosinase (PGE2 alone at 1 μM) [%] | stimulation of the activity of tyrosinase (PGE2 alone at 10 μM) [%]
O=C(COc1cccc(Cl)c1)NCc1ccco1 [Compound 23, 2-(3-chlorophenoxy)-N-furan-2-ylmethylacetamide] | 31 | 28 |  | 
CCCCC[C@H](O)/C=C/[C@H]1[C@H](O)CC(=O)[C@@H]1C/C=C\CCCC(=O)O [PGE2, prostaglandin E2] |  |  | 9 | 15
